Measured values as given in ChEMBL document CHEMBL4507256 (2021).

Tests used:
[1] = target: Phosphorylase b kinase regulatory subunit alpha, liver isoform (Homo sapiens) (UniProt P46019); settings: Compound concentration 1000.0 nM
[2] = target: Dual specificity mitogen-activated protein kinase kinase 3 (Homo sapiens) (UniProt P46734); settings: Compound concentration 1000.0 nM
[3] = target: Serine/threonine-protein kinase Chk2 (Homo sapiens) (UniProt O96017); settings: Compound concentration 1000.0 nM
[4] = target: Tyrosine-protein kinase BTK (Homo sapiens) (UniProt Q06187); settings: Compound concentration 1000.0 nM
[5] = system: Epidermal growth factor receptor (Homo sapiens), P00533 [L858R]; settings: Compound concentration 1000.0 nM
[6] = target: Myosin-IIIa (Homo sapiens) (UniProt Q8NEV4); settings: Compound concentration 1000.0 nM
[7] = target: Casein kinase I isoform epsilon (Homo sapiens) (UniProt P49674); settings: Compound concentration 1000.0 nM
[8] = target: Serine/threonine-protein kinase LATS1 (Homo sapiens) (UniProt O95835); settings: Compound concentration 1000.0 nM
[9] = system: Mast/stem cell growth factor receptor Kit (Homo sapiens), P10721 [A829P]; settings: Compound concentration 1000.0 nM
[10] = target: Casein kinase I isoform delta (Homo sapiens) (UniProt P48730); settings: Compound concentration 1000.0 nM
[11] = target: Cyclin-dependent kinase 17 (Homo sapiens) (UniProt Q00537); settings: Compound concentration 1000.0 nM
[12] = target: Cytoplasmic tyrosine-protein kinase BMX (Homo sapiens) (UniProt P51813); settings: Compound concentration 1000.0 nM
[13] = target: Dual specificity protein kinase TTK (Homo sapiens) (UniProt P33981); settings: Compound concentration 1000.0 nM
[14] = target: Ribosomal protein S6 kinase alpha-1 (Homo sapiens) (UniProt Q15418); settings: Compound concentration 1000.0 nM
[15] = target: Receptor-interacting serine/threonine-protein kinase 2 (Homo sapiens) (UniProt O43353); settings: Compound concentration 1000.0 nM
[16] = target: Dual specificity mitogen-activated protein kinase kinase 1 (Homo sapiens) (UniProt Q02750); settings: Compound concentration 1000.0 nM
[17] = target: Serine/threonine-protein kinase Nek6 (Homo sapiens) (UniProt Q9HC98); settings: Compound concentration 1000.0 nM
[18] = target: Ephrin type-A receptor 6 (Homo sapiens) (UniProt Q9UF33); settings: Compound concentration 1000.0 nM
[19] = target: Ribosomal protein S6 kinase alpha-5 (Homo sapiens) (UniProt O75582); settings: Compound concentration 1000.0 nM
[20] = target: Serine/threonine-protein kinase OSR1 (Homo sapiens) (UniProt O95747); settings: Compound concentration 1000.0 nM
[21] = system: Tyrosine-protein kinase ABL1 (Homo sapiens), P00519 [T315I]; settings: Compound concentration 1000.0 nM
[22] = target: Phosphorylase b kinase gamma catalytic chain, skeletal muscle/heart isoform (Homo sapiens) (UniProt Q16816); settings: Compound concentration 1000.0 nM
[23] = target: Serine/threonine-protein kinase BRSK1 (Homo sapiens) (UniProt Q8TDC3); settings: Compound concentration 1000.0 nM
[24] = target: Mitogen-activated protein kinase kinase kinase 6 (Homo sapiens) (UniProt O95382); settings: Compound concentration 1000.0 nM
[25] = target: MAP/microtubule affinity-regulating kinase 3 (Homo sapiens) (UniProt P27448); settings: Compound concentration 1000.0 nM
[26] = target: T1, Muscarinic acetylcholine receptor M4 (Homo sapiens) (UniProt P08173); settings: Compound concentration 10.0 uM
T1 sequence (whole entry): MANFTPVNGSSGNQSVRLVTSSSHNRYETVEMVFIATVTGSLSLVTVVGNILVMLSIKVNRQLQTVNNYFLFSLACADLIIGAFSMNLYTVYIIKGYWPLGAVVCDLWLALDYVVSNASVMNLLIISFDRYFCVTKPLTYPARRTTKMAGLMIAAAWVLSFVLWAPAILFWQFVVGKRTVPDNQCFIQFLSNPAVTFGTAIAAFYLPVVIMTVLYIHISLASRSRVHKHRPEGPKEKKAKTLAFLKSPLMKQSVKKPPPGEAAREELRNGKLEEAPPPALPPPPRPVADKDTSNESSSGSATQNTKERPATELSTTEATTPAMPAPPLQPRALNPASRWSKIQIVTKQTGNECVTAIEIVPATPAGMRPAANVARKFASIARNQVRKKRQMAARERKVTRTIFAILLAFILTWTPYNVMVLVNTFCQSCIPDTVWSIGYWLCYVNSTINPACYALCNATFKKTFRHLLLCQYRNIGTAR

[27] = target: Calcium/calmodulin-dependent protein kinase type 1 (Homo sapiens) (UniProt Q14012); settings: Compound concentration 1000.0 nM
[28] = system: Phosphatidylinositol 4,5-bisphosphate 3-kinase catalytic subunit alpha isoform (Homo sapiens), P42336 [I800L]; settings: Compound concentration 1000.0 nM
[29] = target: Dual specificity protein kinase CLK3 (Homo sapiens) (UniProt P49761); settings: Compound concentration 1000.0 nM
[30] = target: Mitogen-activated protein kinase 14 (Homo sapiens) (UniProt Q16539); settings: Compound concentration 1000.0 nM
[31] = target: Tyrosine-protein kinase Tec (Homo sapiens) (UniProt P42680); settings: Compound concentration 1000.0 nM
[32] = target: Ribosomal protein S6 kinase alpha-4 (Homo sapiens) (UniProt O75676); settings: Compound concentration 1000.0 nM
[33] = target: Mitogen-activated protein kinase 15 (Homo sapiens) (UniProt Q8TD08); settings: Compound concentration 1000.0 nM
[34] = system: Mast/stem cell growth factor receptor Kit (Homo sapiens), P10721 [V559D,T670I]; settings: Compound concentration 1000.0 nM
[35] = target: Ephrin type-A receptor 1 (Homo sapiens) (UniProt P21709); settings: Compound concentration 1000.0 nM
[36] = target: Phosphatidylinositol 3-kinase catalytic subunit type 3 (Homo sapiens) (UniProt Q8NEB9); settings: Compound concentration 1000.0 nM
[37] = target: 1-phosphatidylinositol 3-phosphate 5-kinase (Homo sapiens) (UniProt Q9Y2I7); settings: Compound concentration 1000.0 nM

Serine/threonine-protein kinase LATS1 (Homo sapiens), sequence (O95835 whole entry): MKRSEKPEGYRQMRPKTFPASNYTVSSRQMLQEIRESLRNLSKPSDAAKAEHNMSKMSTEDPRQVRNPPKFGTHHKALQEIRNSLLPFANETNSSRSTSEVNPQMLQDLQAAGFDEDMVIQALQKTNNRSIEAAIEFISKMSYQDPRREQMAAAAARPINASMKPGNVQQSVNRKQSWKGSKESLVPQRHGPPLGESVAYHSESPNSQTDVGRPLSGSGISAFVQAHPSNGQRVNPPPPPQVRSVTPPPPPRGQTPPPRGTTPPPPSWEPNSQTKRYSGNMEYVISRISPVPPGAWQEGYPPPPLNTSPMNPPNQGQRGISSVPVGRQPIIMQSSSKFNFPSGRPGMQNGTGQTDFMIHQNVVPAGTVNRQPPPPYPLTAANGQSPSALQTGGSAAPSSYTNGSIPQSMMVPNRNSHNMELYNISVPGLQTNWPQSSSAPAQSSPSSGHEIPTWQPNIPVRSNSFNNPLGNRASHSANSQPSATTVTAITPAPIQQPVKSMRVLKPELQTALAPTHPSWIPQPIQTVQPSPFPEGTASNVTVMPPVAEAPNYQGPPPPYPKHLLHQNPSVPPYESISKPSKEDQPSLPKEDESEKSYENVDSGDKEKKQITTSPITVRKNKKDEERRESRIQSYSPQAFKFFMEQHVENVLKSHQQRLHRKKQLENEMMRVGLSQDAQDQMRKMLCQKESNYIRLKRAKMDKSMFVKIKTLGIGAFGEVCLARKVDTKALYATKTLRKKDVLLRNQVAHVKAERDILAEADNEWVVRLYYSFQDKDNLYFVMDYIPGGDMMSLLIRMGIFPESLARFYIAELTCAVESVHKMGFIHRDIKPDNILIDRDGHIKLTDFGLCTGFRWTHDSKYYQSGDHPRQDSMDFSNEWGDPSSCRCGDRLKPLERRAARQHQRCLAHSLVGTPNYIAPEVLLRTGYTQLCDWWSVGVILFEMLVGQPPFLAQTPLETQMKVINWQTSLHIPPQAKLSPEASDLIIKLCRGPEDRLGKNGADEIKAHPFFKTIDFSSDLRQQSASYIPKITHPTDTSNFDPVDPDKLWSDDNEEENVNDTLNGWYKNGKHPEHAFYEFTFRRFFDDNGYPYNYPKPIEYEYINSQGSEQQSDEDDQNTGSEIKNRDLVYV
Tyrosine-protein kinase Tec (Homo sapiens), sequence (P42680 whole entry): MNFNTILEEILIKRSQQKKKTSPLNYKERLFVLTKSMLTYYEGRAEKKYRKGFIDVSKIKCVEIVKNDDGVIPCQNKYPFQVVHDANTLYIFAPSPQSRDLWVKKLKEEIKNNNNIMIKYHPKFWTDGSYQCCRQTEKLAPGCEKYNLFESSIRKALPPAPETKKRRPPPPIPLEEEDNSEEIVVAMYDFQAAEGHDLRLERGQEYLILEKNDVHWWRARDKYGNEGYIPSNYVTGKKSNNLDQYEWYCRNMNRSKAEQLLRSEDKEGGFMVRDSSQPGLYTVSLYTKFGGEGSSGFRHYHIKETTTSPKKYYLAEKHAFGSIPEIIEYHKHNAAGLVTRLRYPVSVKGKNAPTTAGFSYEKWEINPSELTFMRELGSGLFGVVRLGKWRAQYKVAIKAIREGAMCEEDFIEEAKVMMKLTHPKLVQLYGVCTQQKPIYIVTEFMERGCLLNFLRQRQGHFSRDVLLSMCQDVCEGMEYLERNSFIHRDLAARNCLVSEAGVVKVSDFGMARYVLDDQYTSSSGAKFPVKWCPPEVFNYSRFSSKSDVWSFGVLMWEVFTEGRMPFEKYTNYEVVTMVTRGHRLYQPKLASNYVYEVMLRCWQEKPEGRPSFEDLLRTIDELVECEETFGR
Cyclin-dependent kinase 17 (Homo sapiens), sequence (Q00537 whole entry, looked up): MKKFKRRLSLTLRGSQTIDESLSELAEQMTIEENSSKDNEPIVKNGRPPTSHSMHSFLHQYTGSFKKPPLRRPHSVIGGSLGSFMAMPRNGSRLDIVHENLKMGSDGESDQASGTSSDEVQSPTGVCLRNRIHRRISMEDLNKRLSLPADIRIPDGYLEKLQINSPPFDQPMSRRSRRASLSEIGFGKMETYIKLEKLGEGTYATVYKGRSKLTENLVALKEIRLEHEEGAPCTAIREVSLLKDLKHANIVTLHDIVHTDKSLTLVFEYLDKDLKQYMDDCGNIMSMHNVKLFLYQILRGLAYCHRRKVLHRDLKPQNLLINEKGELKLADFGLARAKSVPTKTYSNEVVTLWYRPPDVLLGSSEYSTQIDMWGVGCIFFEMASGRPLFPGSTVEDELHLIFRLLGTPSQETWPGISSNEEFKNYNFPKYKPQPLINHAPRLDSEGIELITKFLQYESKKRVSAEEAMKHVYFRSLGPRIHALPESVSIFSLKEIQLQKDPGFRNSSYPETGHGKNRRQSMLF
Dual specificity protein kinase TTK (Homo sapiens), sequence (P33981 whole entry): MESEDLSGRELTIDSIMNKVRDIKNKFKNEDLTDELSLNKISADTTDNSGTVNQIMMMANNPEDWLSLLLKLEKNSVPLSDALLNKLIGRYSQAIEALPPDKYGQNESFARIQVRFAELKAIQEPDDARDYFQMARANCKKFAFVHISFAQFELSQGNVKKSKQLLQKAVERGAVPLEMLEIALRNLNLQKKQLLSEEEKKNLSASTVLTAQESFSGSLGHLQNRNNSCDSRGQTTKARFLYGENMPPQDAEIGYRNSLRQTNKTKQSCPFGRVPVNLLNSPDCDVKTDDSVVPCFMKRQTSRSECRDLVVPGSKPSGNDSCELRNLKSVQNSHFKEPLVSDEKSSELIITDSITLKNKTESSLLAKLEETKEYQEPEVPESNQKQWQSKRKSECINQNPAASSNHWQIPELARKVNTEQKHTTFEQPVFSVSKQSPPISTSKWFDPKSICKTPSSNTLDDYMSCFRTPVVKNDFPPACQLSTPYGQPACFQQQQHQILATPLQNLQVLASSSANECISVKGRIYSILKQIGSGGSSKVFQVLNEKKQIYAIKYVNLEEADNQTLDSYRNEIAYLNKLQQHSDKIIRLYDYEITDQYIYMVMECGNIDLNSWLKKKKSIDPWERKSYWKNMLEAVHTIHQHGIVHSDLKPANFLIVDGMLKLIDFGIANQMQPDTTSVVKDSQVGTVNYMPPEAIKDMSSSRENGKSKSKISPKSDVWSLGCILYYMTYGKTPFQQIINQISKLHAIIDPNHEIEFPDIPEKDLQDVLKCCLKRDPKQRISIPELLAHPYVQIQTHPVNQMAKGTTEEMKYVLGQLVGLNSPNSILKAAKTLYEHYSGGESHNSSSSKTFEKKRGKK
Mitogen-activated protein kinase kinase kinase 6 (Homo sapiens), sequence (O95382 whole entry): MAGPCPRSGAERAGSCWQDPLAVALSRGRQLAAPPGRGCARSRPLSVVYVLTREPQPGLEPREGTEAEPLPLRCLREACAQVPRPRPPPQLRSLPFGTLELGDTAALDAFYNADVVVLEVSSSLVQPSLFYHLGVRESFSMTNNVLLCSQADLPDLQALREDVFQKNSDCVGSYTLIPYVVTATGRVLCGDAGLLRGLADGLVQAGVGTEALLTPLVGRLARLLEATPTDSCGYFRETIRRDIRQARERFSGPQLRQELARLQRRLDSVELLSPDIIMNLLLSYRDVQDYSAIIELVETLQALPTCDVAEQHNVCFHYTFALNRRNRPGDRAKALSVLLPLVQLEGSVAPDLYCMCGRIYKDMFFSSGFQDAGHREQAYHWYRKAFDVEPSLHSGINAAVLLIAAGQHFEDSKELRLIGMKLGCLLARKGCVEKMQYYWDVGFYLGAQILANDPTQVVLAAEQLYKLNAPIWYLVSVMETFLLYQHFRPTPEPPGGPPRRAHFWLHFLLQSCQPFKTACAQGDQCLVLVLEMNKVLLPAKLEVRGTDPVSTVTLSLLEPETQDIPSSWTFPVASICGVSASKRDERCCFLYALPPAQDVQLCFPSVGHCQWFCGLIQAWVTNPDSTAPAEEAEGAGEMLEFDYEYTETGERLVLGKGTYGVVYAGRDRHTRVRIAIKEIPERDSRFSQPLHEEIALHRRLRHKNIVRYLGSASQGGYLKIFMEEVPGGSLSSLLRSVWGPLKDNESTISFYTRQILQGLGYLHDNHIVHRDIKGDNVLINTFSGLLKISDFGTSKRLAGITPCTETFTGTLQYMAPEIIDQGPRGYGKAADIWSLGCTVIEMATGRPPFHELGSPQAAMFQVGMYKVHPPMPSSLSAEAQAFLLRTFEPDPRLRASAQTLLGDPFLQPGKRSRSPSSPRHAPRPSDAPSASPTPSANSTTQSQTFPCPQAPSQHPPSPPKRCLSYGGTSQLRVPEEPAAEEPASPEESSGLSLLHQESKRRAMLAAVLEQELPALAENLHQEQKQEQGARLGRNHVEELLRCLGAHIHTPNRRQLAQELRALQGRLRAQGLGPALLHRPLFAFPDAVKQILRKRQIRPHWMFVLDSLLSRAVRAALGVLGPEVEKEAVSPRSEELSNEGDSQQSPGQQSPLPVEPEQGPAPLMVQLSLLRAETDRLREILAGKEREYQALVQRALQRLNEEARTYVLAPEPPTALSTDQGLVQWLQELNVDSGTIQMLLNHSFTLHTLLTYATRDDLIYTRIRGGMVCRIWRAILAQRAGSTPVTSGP
Calcium/calmodulin-dependent protein kinase type 1 (Homo sapiens), sequence (Q14012 whole entry, looked up, canonical isoform): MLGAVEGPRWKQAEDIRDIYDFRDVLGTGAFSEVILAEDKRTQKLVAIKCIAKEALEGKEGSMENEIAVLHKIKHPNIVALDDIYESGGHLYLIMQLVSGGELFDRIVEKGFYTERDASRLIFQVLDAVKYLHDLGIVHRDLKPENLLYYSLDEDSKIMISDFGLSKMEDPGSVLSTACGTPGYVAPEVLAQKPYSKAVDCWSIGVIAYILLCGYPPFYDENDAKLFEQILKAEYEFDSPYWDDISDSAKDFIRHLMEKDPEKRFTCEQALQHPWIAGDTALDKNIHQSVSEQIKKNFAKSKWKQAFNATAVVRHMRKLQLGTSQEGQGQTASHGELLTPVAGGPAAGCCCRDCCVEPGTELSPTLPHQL

CCC(=N\O)/C(C)=C/c1ccc(F)c(C)c1 [A-226]
inactive: residual activity [1] 100% | residual activity [2] 100% | residual activity [3] 90% | residual activity [4] 100% | residual activity [5] 100% | residual activity [6] 94% | residual activity [7] 92% | residual activity [8] 89% | residual activity [9] 100% | residual activity [10] 92% | residual activity [11] 99% | residual activity [12] 99% | residual activity [13] 93% | residual activity [14] 96% | residual activity [15] 65% | residual activity [16] 95% | residual activity [17] 99% | residual activity [18] 100% | residual activity [19] 89% | residual activity [20] 100% | residual activity [21] 88% | residual activity [22] 100% | residual activity [23] 99% | residual activity [24] 100% | residual activity [25] 100% | inhibition [26] 15.4% | residual activity [27] 86% | residual activity [28] 100% | residual activity [29] 100% | residual activity [30] 100% | residual activity [31] 100% | residual activity [32] 100% | residual activity [33] 100% | residual activity [34] 100% | residual activity [35] 83% | residual activity [36] 100% | residual activity [37] 100%

CCC(=N\O)/C(C)=C/c1ccc(F)cc1 [A-079]
inactive: residual activity [1] 90% | residual activity [2] 94% | residual activity [3] 85% | residual activity [4] 78% | residual activity [5] 65% | residual activity [6] 100% | residual activity [7] 99% | residual activity [8] 100% | residual activity [9] 64% | residual activity [10] 81% | residual activity [11] 90% | residual activity [12] 83% | residual activity [13] 96% | residual activity [14] 100% | residual activity [15] 91% | residual activity [16] 95% | residual activity [17] 87% | residual activity [18] 67% | residual activity [19] 100% | residual activity [20] 80% | residual activity [21] 87% | residual activity [22] 100% | residual activity [23] 100% | residual activity [24] 63% | residual activity [25] 86% | inhibition [26] 18.2% | residual activity [27] 100% | residual activity [28] 100% | residual activity [29] 73% | residual activity [30] 100% | residual activity [31] 89% | residual activity [32] 96% | residual activity [33] 95% | residual activity [34] 95% | residual activity [35] 82% | residual activity [36] 83% | residual activity [37] 92%
